In patent US12077503B2, “Substituted cyclic amides and their use as herbicides” (FMC CORPORATION, priority 2015, dated 2024):

Columns and labels:
Type in all cases: in vivo
Kochia (Kochia scoparia) [1] = experiment: Test A preemergence; settings: Preemergence; for Plant response rating, Kochia: 125 g ai/ha, visual injury after approximately 10 d, 0 to 100 scale where 0 is no effect and 100 is complete control; for Kochia plant response rating (0 to 100 scale, 0 is no effect, 100 is complete control): 500 g ai/ha, visual injury approx. 10 d
Text: (§1) Seeds of plant species selected from barnyardgrass (Echinochloa crus-galli), Kochia (Kochia scoparia), ragweed (common ragweed, Ambrosia elatior), ryegrass, Italian (Italian ryegrass, Lolium multiflorum), crabgrass, large (Digitaria sanguinalis), giant foxtail (Setaria faberii), green foxtail (Setaria viridis), morningglory (Ipomoea spp.), pigweed (Amaranthus retroflexus), velvetleaf (Abutilon theophrasti), wheat (Triticum aestivum), and corn (Zea mays) were planted into a blend of loam soil and sand and treated preemergence with a directed soil spray using test chemicals formulated in anon-phytotoxic solvent mixture which included a surfactant.
(§2) At the same time, plants selected from these crop and weed species and also blackgrass (Alopecurus myosuroides), and Galium (catchweed bedstraw, Galium aparine) were planted in pots containing the same blend of loam soil and sand and treated with postemergence applications of test chemicals formulated in the same manner. Plants ranged in height from 2 to 10 cm and were in the one- to two-leaf stage for the postemergence treatment. Treated plants and untreated controls were maintained in a greenhouse for approximately 10 d, after which time all treated plants were compared to untreated controls and visually evaluated for injury. Plant response ratings, summarized in Table A, are based on a 0 to 100 scale where 0 is no effect and 100 is complete control. A dash (-) response means no test result.

[2] = tested on: barnyardgrass (Echinochloa crus-galli); experiment: Test A preemergence; settings: Preemergence; for Plant response rating, Barnyardgrass: 125 g ai/ha, visual injury after approximately 10 d, 0 to 100 scale where 0 is no effect and 100 is complete control; for Barnyardgrass plant response rating (0 to 100 scale, 0 is no effect, 100 is complete control): 500 g ai/ha, visual injury approx. 10 d
Text: as §1, §2

[3] = tested on: giant foxtail (Setaria faberii); experiment: Test A preemergence; settings: Preemergence; for Plant response rating, Foxtail, Giant: 125 g ai/ha, visual injury after approximately 10 d, 0 to 100 scale where 0 is no effect and 100 is complete control; for Foxtail, Giant plant response rating (0 to 100 scale, 0 is no effect, 100 is complete control): 500 g ai/ha, visual injury approx. 10 d
Text: as §1, §2

[4] = tested on: pigweed (Amaranthus retroflexus); experiment: Test A preemergence; settings: Preemergence; for Plant response rating, Pigweed: 125 g ai/ha, visual injury after approximately 10 d, 0 to 100 scale where 0 is no effect and 100 is complete control; for Pigweed plant response rating (0 to 100 scale, 0 is no effect, 100 is complete control): 500 g ai/ha, visual injury approx. 10 d
Text: as §1, §2

[5] = tested on: ragweed (common ragweed, Ambrosia elatior); experiment: Test A preemergence; settings: Preemergence; for Plant response rating, Ragweed: 125 g ai/ha, visual injury after approximately 10 d, 0 to 100 scale where 0 is no effect and 100 is complete control; for Ragweed plant response rating (0 to 100 scale, 0 is no effect, 100 is complete control): 500 g ai/ha, visual injury approx. 10 d
Text: as §1, §2

[6] = tested on: ryegrass, Italian (Italian ryegrass, Lolium multiflorum); experiment: Test A preemergence; settings: Preemergence; for Plant response rating, Ryegrass, Italian: 125 g ai/ha, visual injury after approximately 10 d, 0 to 100 scale where 0 is no effect and 100 is complete control; for Ryegrass, Italian plant response rating (0 to 100 scale, 0 is no effect, 100 is complete control): 500 g ai/ha, visual injury approx. 10 d
Text: as §1, §2

[7] = tested on: Galium (catchweed bedstraw, Galium aparine); experiment: Test A postemergence
Text: as §1, §2

Kochia (Kochia scoparia) [8] = experiment: Test A postemergence
Text: as §1, §2

[9] = tested on: barnyardgrass (Echinochloa crus-galli); experiment: Test A postemergence
Text: as §1, §2

[10] = tested on: blackgrass (Alopecurus myosuroides); experiment: Test A postemergence
Text: as §1, §2

corn (Zea mays) = experiment: Test A postemergence
Text: as §1, §2

[11] = tested on: giant foxtail (Setaria faberii); experiment: Test A postemergence
Text: as §1, §2

[12] = tested on: pigweed (Amaranthus retroflexus); experiment: Test A postemergence
Text: as §1, §2

[13] = tested on: ragweed (common ragweed, Ambrosia elatior); experiment: Test A postemergence
Text: as §1, §2

[14] = tested on: ryegrass, Italian (Italian ryegrass, Lolium multiflorum); experiment: Test A postemergence
Text: as §1, §2

[15] = tested on: wheat (Triticum aestivum); experiment: Test A postemergence
Text: as §1, §2

[16] = 125 g ai/ha, postemergence, visual rating after approx. 10 d, 0 to 100 scale (0 no effect, 100 complete control)
[17] = Postemergence, 500 g ai/ha, 0 to 100 scale where 0 is no effect and 100 is complete control

SMILES | Plant response rating, Kochia (Kochia (Kochia scoparia) [1]) | Kochia plant response rating (0 to 100 scale, 0 is no effect, 100 is complete control) (Kochia (Kochia scoparia) [1]) | Plant response rating, Barnyardgrass [2] | Barnyardgrass plant response rating (0 to 100 scale, 0 is no effect, 100 is complete control) [2] | Plant response rating, Foxtail, Giant [3] | Foxtail, Giant plant response rating (0 to 100 scale, 0 is no effect, 100 is complete control) [3] | Plant response rating, Pigweed [4] | Pigweed plant response rating (0 to 100 scale, 0 is no effect, 100 is complete control) [4] | Plant response rating, Ragweed [5] | Ragweed plant response rating (0 to 100 scale, 0 is no effect, 100 is complete control) [5] | Plant response rating, Ryegrass, Italian [6] | Ryegrass, Italian plant response rating (0 to 100 scale, 0 is no effect, 100 is complete control) [6] | Plant response rating, Galium [7, 16] | Plant response rating, Galium [7, 17] | Plant response rating, Kochia (Kochia (Kochia scoparia) [8]; [16]) | Plant response rating, Kochia (Kochia (Kochia scoparia) [8]; [17]) | Plant response rating, Barnyardgrass [9, 16] | Plant response rating, Barnyardgrass [9, 17] | Plant response rating, Blackgrass [10, 16] | Plant response rating, Blackgrass [10, 17] | other results
CCc1cccc(C2CN(C)C(=O)C2C(=O)Nc2cccc(F)c2F)c1 (stereo not drawn) [Compound 568] | 70 | 80 | 90 | 100 | 100 | 100 | 30 | 60 | 20 | 50 | 70 | 100 | 60 | 60 | 70 | 70 | 100 | 100 | 60 | 90 | Plant response rating, Corn (corn (Zea mays); [16]): 60; Plant response rating, Corn (corn (Zea mays); [17]): 90; Plant response rating, Foxtail, Giant [11, 16]: 90; Plant response rating, Foxtail, Giant [11, 17]: 90; Plant response rating, Pigweed [12, 16]: 30; Plant response rating, Pigweed [12, 17]: 60; Plant response rating, Ragweed [13, 16]: 30; Plant response rating, Ragweed [13, 17]: 30; Plant response rating, Ryegrass, Italian [14, 16]: 70; Plant response rating, Ryegrass, Italian [14, 17]: 90; Plant response rating, Wheat [15, 16]: 30; Plant response rating, Wheat [15, 17]: 70
CCc1cccc(C2CN(C)C(=O)C2C(=O)Nc2ccccc2S(C)(=O)=O)c1 (stereo not drawn) [Compound 569] | 60 | 90 | 90 | 100 | 100 | 100 | 50 | 80 | 60 | 70 | 30 | 70 | 40 | 60 | 20 | 50 | 90 | 90 | 60 | 80 | Plant response rating, Corn (corn (Zea mays); [16]): 20; Plant response rating, Corn (corn (Zea mays); [17]): 60; Plant response rating, Foxtail, Giant [11, 16]: 90; Plant response rating, Foxtail, Giant [11, 17]: 90; Plant response rating, Pigweed [12, 16]: 0; Plant response rating, Pigweed [12, 17]: 50; Plant response rating, Ragweed [13, 16]: 30; Plant response rating, Ragweed [13, 17]: 60; Plant response rating, Ryegrass, Italian [14, 16]: 40; Plant response rating, Ryegrass, Italian [14, 17]: 60; Plant response rating, Wheat [15, 16]: 30; Plant response rating, Wheat [15, 17]: 70
CN1CC(c2cccc(C(F)(F)F)c2)C(C(=O)Nc2cccc(C#N)c2F)C1=O (stereo not drawn) [Compound 576] | 20 | 90 | 90 | 90 | 90 | 90 | 20 | 80 | 20 | 60 | 20 | 30 | 50 | 60 | 30 | 60 | 90 | 90 | 50 | 50 | Plant response rating, Corn (corn (Zea mays); [16]): 80; Plant response rating, Corn (corn (Zea mays); [17]): 80; Plant response rating, Foxtail, Giant [11, 16]: 90; Plant response rating, Foxtail, Giant [11, 17]: 90; Plant response rating, Pigweed [12, 16]: 0; Plant response rating, Pigweed [12, 17]: 50; Plant response rating, Ragweed [13, 16]: 30; Plant response rating, Ragweed [13, 17]: 50; Plant response rating, Ryegrass, Italian [14, 16]: 30; Plant response rating, Ryegrass, Italian [14, 17]: 60; Plant response rating, Wheat [15, 16]: 60; Plant response rating, Wheat [15, 17]: 70
